pIC50: −log10 of the molar value.
Assays:
Acetylcholinesterase [1] = target: T1, Acetylcholinesterase (Electrophorus electricus, UniProt O42275); assay: Inhibition of electric eel acetylcholinesterase using acetylcholine chloride as substrate measured every 1 min by chemiluminescent assay
Acetylcholinesterase [2] = target: T2, Acetylcholinesterase (Homo sapiens, UniProt P22303); assay: Inhibition of acetylcholinesterase (unknown origin)
Acetylcholinesterase [3] = target: T2, Acetylcholinesterase; assay: Inhibition of acetylcholinesterase (unknown origin) by Ellman's method
Cholinesterase = Cholinesterase (Equus caballus, UniProt P81908); assay: Inhibition of equine serum BuChE after 15 mins by spectrophotometric analysis
Sequence of Cholinesterase (P81908 whole entry): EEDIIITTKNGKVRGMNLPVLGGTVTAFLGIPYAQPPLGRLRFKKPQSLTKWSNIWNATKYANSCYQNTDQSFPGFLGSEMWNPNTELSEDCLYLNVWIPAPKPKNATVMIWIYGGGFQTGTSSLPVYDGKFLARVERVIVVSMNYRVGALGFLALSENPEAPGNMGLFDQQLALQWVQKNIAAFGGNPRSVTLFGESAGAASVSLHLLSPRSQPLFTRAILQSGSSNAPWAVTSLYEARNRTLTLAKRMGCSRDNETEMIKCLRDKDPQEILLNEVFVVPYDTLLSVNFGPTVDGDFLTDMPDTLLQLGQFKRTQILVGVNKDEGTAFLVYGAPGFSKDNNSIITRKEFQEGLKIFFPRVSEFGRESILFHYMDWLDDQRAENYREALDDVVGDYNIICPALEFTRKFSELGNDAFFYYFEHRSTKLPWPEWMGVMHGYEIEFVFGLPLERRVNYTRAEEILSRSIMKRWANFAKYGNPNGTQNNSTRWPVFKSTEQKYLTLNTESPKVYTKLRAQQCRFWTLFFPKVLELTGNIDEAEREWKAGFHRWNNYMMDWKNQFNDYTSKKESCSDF

Acetylcholinesterase [4] = target: T1, Acetylcholinesterase; assay: Inhibition of electric eel acetylcholinesterase using acetylthiocholine chloride as substrate preincubated for 15 mins followed by substrate addition measured every 1 min by spectrophotometric analysis
Acetylcholinesterase [5] = target: T3, Acetylcholinesterase (Rattus norvegicus, UniProt P37136); assay: Inhibition of rat brain AChE
T3 sequence (P37136 whole entry): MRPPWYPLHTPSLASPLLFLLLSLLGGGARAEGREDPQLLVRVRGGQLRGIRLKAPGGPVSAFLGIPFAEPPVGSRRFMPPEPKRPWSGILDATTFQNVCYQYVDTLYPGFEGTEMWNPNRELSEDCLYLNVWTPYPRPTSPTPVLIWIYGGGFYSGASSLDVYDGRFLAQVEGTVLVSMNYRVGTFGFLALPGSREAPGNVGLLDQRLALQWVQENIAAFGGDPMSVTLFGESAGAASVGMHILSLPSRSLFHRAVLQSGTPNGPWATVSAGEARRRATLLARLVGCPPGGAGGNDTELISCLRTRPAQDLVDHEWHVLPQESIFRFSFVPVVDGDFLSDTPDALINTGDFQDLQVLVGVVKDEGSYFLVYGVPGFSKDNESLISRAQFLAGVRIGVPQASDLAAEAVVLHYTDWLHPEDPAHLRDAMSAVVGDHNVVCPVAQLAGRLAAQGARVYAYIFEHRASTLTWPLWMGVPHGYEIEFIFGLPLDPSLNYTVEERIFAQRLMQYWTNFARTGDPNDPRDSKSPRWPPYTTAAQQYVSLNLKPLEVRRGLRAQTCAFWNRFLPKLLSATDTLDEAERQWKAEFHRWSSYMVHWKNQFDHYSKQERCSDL

Acetylcholinesterase [6] = target: T4, Acetylcholinesterase (Bos taurus, UniProt P23795); assay: Inhibition of bovine erythrocyte acetylcholinesterase using acetylthiocholine iodide as substrate after 15 mins by Ellman's method
T4 sequence (P23795 whole entry): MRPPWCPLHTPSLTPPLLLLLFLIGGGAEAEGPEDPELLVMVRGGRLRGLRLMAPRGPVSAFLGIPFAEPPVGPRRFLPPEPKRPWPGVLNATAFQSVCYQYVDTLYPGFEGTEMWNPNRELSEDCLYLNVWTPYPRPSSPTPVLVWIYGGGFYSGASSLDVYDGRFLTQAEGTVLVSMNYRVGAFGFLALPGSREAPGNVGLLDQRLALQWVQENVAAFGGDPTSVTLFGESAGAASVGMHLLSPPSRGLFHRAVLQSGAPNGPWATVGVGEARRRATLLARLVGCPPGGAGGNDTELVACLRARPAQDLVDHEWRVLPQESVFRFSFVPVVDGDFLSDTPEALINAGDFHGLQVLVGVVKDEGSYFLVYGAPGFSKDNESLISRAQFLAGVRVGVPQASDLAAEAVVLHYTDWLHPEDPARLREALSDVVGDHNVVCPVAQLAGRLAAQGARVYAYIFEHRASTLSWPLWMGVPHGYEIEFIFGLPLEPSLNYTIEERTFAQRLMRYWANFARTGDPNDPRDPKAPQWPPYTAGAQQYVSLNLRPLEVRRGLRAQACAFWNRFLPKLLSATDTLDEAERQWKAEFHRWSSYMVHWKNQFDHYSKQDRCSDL

T2 sequence (P22303 whole entry): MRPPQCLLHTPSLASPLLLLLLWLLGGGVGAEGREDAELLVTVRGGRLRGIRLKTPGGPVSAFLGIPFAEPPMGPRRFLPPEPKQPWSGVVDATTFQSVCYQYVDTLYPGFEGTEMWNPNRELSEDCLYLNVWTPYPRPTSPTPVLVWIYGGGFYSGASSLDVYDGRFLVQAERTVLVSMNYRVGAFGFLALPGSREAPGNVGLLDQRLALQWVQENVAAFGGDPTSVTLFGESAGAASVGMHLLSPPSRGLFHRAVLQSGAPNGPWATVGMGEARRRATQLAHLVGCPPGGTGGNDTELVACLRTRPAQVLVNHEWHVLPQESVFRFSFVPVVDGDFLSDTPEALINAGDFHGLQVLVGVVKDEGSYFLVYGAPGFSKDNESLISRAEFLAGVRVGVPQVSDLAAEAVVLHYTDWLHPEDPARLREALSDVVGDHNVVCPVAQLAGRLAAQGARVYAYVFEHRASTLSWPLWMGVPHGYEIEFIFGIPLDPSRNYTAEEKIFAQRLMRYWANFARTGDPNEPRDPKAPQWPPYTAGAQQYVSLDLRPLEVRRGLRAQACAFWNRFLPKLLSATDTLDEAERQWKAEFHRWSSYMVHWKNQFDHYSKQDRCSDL
T1 sequence (O42275 whole entry): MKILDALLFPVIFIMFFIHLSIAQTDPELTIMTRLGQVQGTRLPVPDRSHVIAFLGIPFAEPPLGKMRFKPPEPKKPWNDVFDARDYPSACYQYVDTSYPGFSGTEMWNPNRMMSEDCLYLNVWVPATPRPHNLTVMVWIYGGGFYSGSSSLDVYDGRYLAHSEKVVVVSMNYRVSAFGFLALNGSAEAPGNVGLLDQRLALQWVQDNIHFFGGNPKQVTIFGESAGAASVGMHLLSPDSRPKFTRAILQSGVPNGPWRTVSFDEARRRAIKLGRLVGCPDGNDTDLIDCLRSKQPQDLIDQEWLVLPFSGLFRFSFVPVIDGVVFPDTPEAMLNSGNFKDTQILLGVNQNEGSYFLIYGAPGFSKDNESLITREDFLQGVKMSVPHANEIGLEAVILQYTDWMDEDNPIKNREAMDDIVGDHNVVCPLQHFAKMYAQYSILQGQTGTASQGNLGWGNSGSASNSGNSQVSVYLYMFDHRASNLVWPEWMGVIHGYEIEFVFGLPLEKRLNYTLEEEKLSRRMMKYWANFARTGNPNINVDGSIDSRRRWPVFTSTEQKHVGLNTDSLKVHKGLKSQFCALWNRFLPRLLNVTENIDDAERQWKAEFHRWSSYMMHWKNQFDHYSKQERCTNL

O=C1CCN(Cc2ccccc2)C/C1=C\c1c[nH]c2ccccc12
pIC50 (Acetylcholinesterase [1]): 5.10

CCOC(=O)C1=C(C)Oc2nc3c(c(N)c2C1c1ccc(OC)cc1)CCCC3 (centres undefined)
pIC50 (Acetylcholinesterase [2]): 6.06

CCn1c(=O)n(C)s/c1=N\CCC1CCN(Cc2ccccc2)CC1
pIC50 (Acetylcholinesterase [3]): 6.85

COc1cc2c3c(c1OC)/C1=C/C[C@H](O)C[C@@H](O)[C@H](O1)[C@@H]3N(C)CC2
pIC50 (Cholinesterase): 4.87
pIC50 (Acetylcholinesterase [4]): 6.14

CC(=O)CCCCCCCCCCCC[C@H]1CC[C@@H](OC(C)=O)[C@@H](C)N1
pIC50 (Acetylcholinesterase [5]): 5.14

CC(=O)CCCCCCCCCCCC[C@H]1CC[C@@H](OC(=O)OC(C)(C)C)[C@@H](C)N1
pIC50 (Acetylcholinesterase [5]): 4.82

Cc1nn(-c2ccccc2)c2nc3nc4c(c(N)c3cc12)CCCC4
pIC50 (Acetylcholinesterase [6]): 5.19

CCOC(=O)C1=C(C)Oc2nc3c(c(N)c2C1c1ccc(C)cc1)CCCC3 (centres undefined)
pIC50 (Acetylcholinesterase [2]): 6.74

Source: ChEMBL document CHEMBL3085748, “Acetylcholinesterase inhibitors as Alzheimer therapy: from nerve toxins to neuroprotection” (Eur J Med Chem, 2013)
